In PubChem BioAssay AID330 (DTP/NCI, 2004):
“And” between values parts separate entries of the source, which are not always exact repeats. Equal entries are not always repeated. Inconclusive results and toxic doses are left out.

System: P388 leukemia ip, CD2F1 mice, survival T/C
Experiment: NCI In Vivo Anticancer Drug Screen. Data for tumor model P388 Leukemia (intraperitoneal) in CD2F1 (CDF1) mice
Details: endpoint: median survival time, higher = longer survival
In short: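 Mice carrying the transplanted tumor received test compound or vehicle. Survival was recorded in each group, and the value is the treated-group measurement divided by that of the vehicle-treated control group.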

[1] = dose: 100.0 mg/kg/injection, schedule: Q01DX009 (ip), vehicle: Klucel (hydroxypropylcellulose) (HPC)
[2] = dose: 50.0 mg/kg/injection, schedule: Q01DX005 (ip), vehicle: saline with Tween-80
[3] = dose: 100.0 mg/kg/injection, schedule: Q01DX005 (ip), vehicle: saline with Tween-80
[4] = dose: 200.0 mg/kg/injection, schedule: Q01DX005 (ip), vehicle: saline with Tween-80
[5] = dose: 50.0 mg/kg/injection, schedule: Q01DX005 (ip), vehicle: Klucel (hydroxypropylcellulose) (HPC)
[6] = dose: 6.25 mg/kg/injection, schedule: Q01DX005 (ip), vehicle: Klucel (hydroxypropylcellulose) (HPC)
[7] = dose: 12.5 mg/kg/injection, schedule: Q01DX005 (ip), vehicle: Klucel (hydroxypropylcellulose) (HPC)

## CC(C)C(CO)NC(=O)c1ccccc1 (configuration not stated)
dose: 100.0 mg/kg/injection, schedule: Q04DX002 (ip), vehicle: Klucel (hydroxypropylcellulose) (HPC)
  T/C: 95 % of control
dose: 200.0 mg/kg/injection, schedule: Q04DX002 (ip), vehicle: Klucel (hydroxypropylcellulose) (HPC)
  T/C: 96 % of control
dose: 400.0 mg/kg/injection, schedule: Q04DX002 (ip), vehicle: Klucel (hydroxypropylcellulose) (HPC)
  T/C: 95 % of control

## CC/C(C)=C1\OC(=O)C(C)C(O)C(Cc2cccnc2)NC(=O)C(NC(=O)c2ncccc2O)C(C)OC1=O (configuration not stated)
dose: 18.75 mg/kg/injection, schedule: Q01DX009 (ip), vehicle: saline with Tween-80
  T/C: 88 % of control
dose: 37.5 mg/kg/injection, schedule: Q01DX009 (ip), vehicle: saline with Tween-80
  T/C: 86 % of control
dose: 150.0 mg/kg/injection, schedule: Q01DX009 (ip), vehicle: saline with Tween-80
  T/C: 86 % of control

## O=[N+]([O-])c1ccc([Se]CCO)c([N+](=O)[O-])c1
dose: 50.0 mg/kg/injection, schedule: Q01DX009 (ip), vehicle: Klucel (hydroxypropylcellulose) (HPC)
  T/C: 101 % of control
[1]
  T/C: 99 % of control

## CCCCn1c2nc(=O)[nH]c(=O)c-2[n+]([O-])c2ccccc21
dose: 25.0 mg/kg/injection, schedule: Q01DX001 (ip), vehicle: saline with Tween-80
  T/C: 102 % of control
dose: 50.0 mg/kg/injection, schedule: Q01DX001 (ip), vehicle: saline with Tween-80
  T/C: 102 % of control

## Cc1cc(C(C(N)=O)c2ccccc2)ccc1N(CCCl)CCCl (configuration not stated)
dose: 9.37 mg/kg/injection, schedule: Q01DX009 (ip), vehicle: other
  T/C: 168 % of control
dose: 18.75 mg/kg/injection, schedule: Q01DX009 (ip), vehicle: other
  T/C: 195 % of control
dose: 25.0 mg/kg/injection, schedule: Q04DX003 (ip), vehicle: Klucel (hydroxypropylcellulose) (HPC)
  T/C: 184 % of control
dose: 50.0 mg/kg/injection, schedule: Q04DX003 (ip), vehicle: Klucel (hydroxypropylcellulose) (HPC)
  T/C: 176 % of control
dose: 100.0 mg/kg/injection, schedule: Q04DX003 (ip), vehicle: Klucel (hydroxypropylcellulose) (HPC)
  T/C: 97 % of control

## C=C(C)C12CC(C)C34OC(/C=C/C=C/CCCCC)(OC1C3C1OC1(CO)C(O)C1(O)C(=O)C(C)=CC14)O2 (configuration not stated)
dose: 0.03 mg/kg/injection, schedule: Q01DX009 (ip), vehicle: distilled water + alcohol
  T/C: 96 % of control
dose: 0.06 mg/kg/injection, schedule: Q01DX009 (ip), vehicle: distilled water + alcohol
  T/C: 102 % of control
dose: 0.12 mg/kg/injection, schedule: Q01DX009 (ip), vehicle: distilled water + alcohol
  T/C: 98 % of control
dose: 0.25 mg/kg/injection, schedule: Q01DX009 (ip), vehicle: distilled water + alcohol
  T/C: 106 % of control
dose: 0.5 mg/kg/injection, schedule: Q01DX009 (ip), vehicle: distilled water + alcohol
  T/C: 98 % of control
dose: 1.0 mg/kg/injection, schedule: Q01DX009 (ip), vehicle: distilled water + alcohol
  T/C: 108 % of control

## O=[N+]([O-])c1cc([N+](=O)[O-])c2ccc(S(=O)(=O)O)cc2c1O
dose: 12.5 mg/kg/injection, schedule: Q04DX002 (ip), vehicle: saline
  T/C: 100 % of control
dose: 15.0 mg/kg/injection, schedule: Q01DX005 (ip), vehicle: saline
  T/C: 105 % of control
dose: 30.0 mg/kg/injection, schedule: Q01DX005 (ip), vehicle: saline
  T/C: 99 % of control
dose: 50.0 mg/kg/injection, schedule: Q04DX002 (ip), vehicle: saline
  T/C: 93 % of control
dose: 60.0 mg/kg/injection, schedule: Q01DX005 (ip), vehicle: saline
  T/C: 100 % of control and 97 % of control
dose: 100.0 mg/kg/injection, schedule: Q01DX001 (ip), vehicle: saline with Tween-80
  T/C: 102 % of control
dose: 100.0 mg/kg/injection, schedule: Q04DX002 (ip), vehicle: saline with Tween-80
  T/C: 98 % of control
dose: 200.0 mg/kg/injection, schedule: Q01DX001 (ip), vehicle: saline with Tween-80
  T/C: 96 % of control

## COC1=CC(=O)C=C(OC)C1=O
dose: 0.5 mg/kg/injection, schedule: Q01DX009 (ip), vehicle: saline with Tween-80
  T/C: 109 % of control
dose: 1.0 mg/kg/injection, schedule: Q01DX009 (ip), vehicle: saline with Tween-80
  T/C: 113 % of control
dose: 2.0 mg/kg/injection, schedule: Q01DX009 (ip), vehicle: saline with Tween-80
  T/C: 119 % of control
dose: 4.0 mg/kg/injection, schedule: Q01DX009 (ip), vehicle: saline with Tween-80
  T/C: 111 % of control

## Cc1ccc(N=C2c3ccccc3-c3ccc(NC(=O)c4ccccc4)cc32)cc1
dose: 3.12 mg/kg/injection, schedule: Q01DX005 (ip), vehicle: saline with Tween-80
  T/C: 93 % of control
dose: 6.25 mg/kg/injection, schedule: Q01DX005 (ip), vehicle: saline with Tween-80
  T/C: 93 % of control
dose: 12.5 mg/kg/injection, schedule: Q01DX005 (ip), vehicle: saline with Tween-80
  T/C: 86 % of control
[2]
  T/C: 86 % of control

## O=c1oc2ccccc2c(O)c1C(c1ccc2c(c1)OCO2)c1c(O)c2ccccc2oc1=O
dose: 15.0 mg/kg/injection, schedule: Q01DX005 (ip), vehicle: saline with Tween-80
  T/C: 98 % of control
dose: 30.0 mg/kg/injection, schedule: Q01DX005 (ip), vehicle: saline with Tween-80
  T/C: 96 % of control

## COC1CC(OC2CCC3(C)C(=CCC4C3C(OC(C)=O)C(OC(=O)CC(C)C)C3(C)C(C(C)=O)CCC43O)C2)OC(C)C1OC1CC(OC)C(OC2CC(OC)C(OC3OC(C)C(O)C(OC)C3O)C(C)O2)C(C)O1 (configuration not stated)
dose: 4.13 mg/kg/injection, schedule: Q01DX005 (ip), vehicle: Klucel (hydroxypropylcellulose) (HPC)
  T/C: 87 % of control
dose: 8.25 mg/kg/injection, schedule: Q01DX005 (ip), vehicle: Klucel (hydroxypropylcellulose) (HPC)
  T/C: 101 % of control

## ICC1(CI)COC1
[1]
  T/C: 105 % of control
dose: 200.0 mg/kg/injection, schedule: Q01DX009 (ip), vehicle: Klucel (hydroxypropylcellulose) (HPC)
  T/C: 104 % of control
dose: 400.0 mg/kg/injection, schedule: Q01DX009 (ip), vehicle: Klucel (hydroxypropylcellulose) (HPC)
  T/C: 99 % of control

## COc1ccc(C2CC(=O)N(c3cccc(C)n3)C(=O)C2)cc1
dose: 100.0 mg/kg/injection, schedule: Q04DX003 (ip), vehicle: saline
  T/C: 100 % of control
dose: 200.0 mg/kg/injection, schedule: Q04DX003 (ip), vehicle: saline
  T/C: 100 % of control
dose: 400.0 mg/kg/injection, schedule: Q04DX003 (ip), vehicle: saline
  T/C: 108 % of control

## N#CC(C(=O)C(=O)Nc1ccc(Cl)c(Cl)c1)c1ccccc1 (configuration not stated)
dose: 60.0 mg/kg/injection, schedule: Q01DX005 (ip), vehicle: saline with Tween-80
  T/C: 100 % of control
dose: 120.0 mg/kg/injection, schedule: Q01DX005 (ip), vehicle: saline with Tween-80
  T/C: 99 % of control

## CCCCCCCCCCCCCCCCOc1ccc(C(=O)O)cc1S(=O)(=O)N/N=c1/sc2cc(Cl)cc(Cl)c2n1C
dose: 50.0 mg/kg/injection, schedule: Q01DX009 (ip), vehicle: saline
  T/C: 88 % of control
dose: 100.0 mg/kg/injection, schedule: Q01DX009 (ip), vehicle: saline
  T/C: 93 % of control
dose: 200.0 mg/kg/injection, schedule: Q01DX009 (ip), vehicle: saline
  T/C: 86 % of control

## O=c1oc2nc(-c3ccccc3)[nH]c(=O)c2c(O)c1-c1ccccc1
dose: 60.0 mg/kg/injection, schedule: Q01DX005 (ip), vehicle: Klucel (hydroxypropylcellulose) (HPC)
  T/C: 96 % of control
dose: 120.0 mg/kg/injection, schedule: Q01DX005 (ip), vehicle: Klucel (hydroxypropylcellulose) (HPC)
  T/C: 96 % of control

## Cc1ccc(S(=O)(=O)SSN2CCOCC2)cc1
[2]
  T/C: 103 % of control
[3]
  T/C: 100 % of control
[4]
  T/C: 100 % of control

## O=C(NCN1CCOCC1)Nc1ccccc1
[2]
  T/C: 115 % of control
[3]
  T/C: 115 % of control
[4]
  T/C: 112 % of control

## C=CCC(C(C)=O)C(=O)OC(C)(C)C (configuration not stated)
dose: 50.0 mg/kg/injection, schedule: Q01DX005 (ip), vehicle: saline
  T/C: 101 % of control
dose: 100.0 mg/kg/injection, schedule: Q01DX005 (ip), vehicle: saline
  T/C: 104 % of control
dose: 200.0 mg/kg/injection, schedule: Q01DX005 (ip), vehicle: saline
  T/C: 111 % of control

## COC(=O)Nc1c2c(nc3ccccc13)-c1ccccc1C(C)(C)C2
[5]
  T/C: 103 % of control
dose: 100.0 mg/kg/injection, schedule: Q01DX005 (ip), vehicle: Klucel (hydroxypropylcellulose) (HPC)
  T/C: 101 % of control
dose: 200.0 mg/kg/injection, schedule: Q01DX005 (ip), vehicle: Klucel (hydroxypropylcellulose) (HPC)
  T/C: 98 % of control

## [CH3][Sn]([CH3])([n]1ccnc1)[n]1ccnc1
[6]
  T/C: 120 % of control
[7]
  T/C: 119 % of control
[5]
  T/C: 120 % of control

## CN(c1ccc(C2=NCCN2)cc1)S(=O)(=O)c1ccc(Oc2ccc(S(=O)(=O)N(C)c3ccc(C4=NCCN4)cc3)cc2)cc1
[6]
  T/C: 100 % of control
[7]
  T/C: 100 % of control
dose: 25.0 mg/kg/injection, schedule: Q01DX005 (ip), vehicle: Klucel (hydroxypropylcellulose) (HPC)
  T/C: 109 % of control
